In PubChem BioAssay (NCI):
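All cell lines were grown in 96-well plates and treated with compound for 48 hours. TGI: concentration producing complete growth inhibition.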

Columns and labels:
Test in all cases: growth of human tumour cells (NCI), 48 h
MDA-MB-231 breast = system: MDA-MB-231 breast
HCT-116 colon = system: HCT-116 colon
A549 NSCLC = system: A549 NSCLC
OVCAR-3 ovarian = system: OVCAR-3 ovarian
RPMI-8226 leukemia = system: RPMI-8226 leukemia
UO-31 renal = system: UO-31 renal
CCRF-CEM leukemia = system: CCRF-CEM leukemia
DU-145 prostate = system: DU-145 prostate
SF-539 CNS = system: SF-539 CNS
NCI-H460 lung = system: NCI-H460 lung
LOX IMVI melanoma = system: LOX IMVI melanoma
SN12C renal = system: SN12C renal
BT-549 breast = system: BT-549 breast
RXF 393 renal = system: RXF 393 renal
NCI-H23 lung = system: NCI-H23 lung
A498 renal = system: A498 renal
SK-MEL-5 melanoma = system: SK-MEL-5 melanoma
SW-620 colon = system: SW-620 colon
UACC-257 melanoma = system: UACC-257 melanoma
M14 melanoma = system: M14 melanoma
MDA-MB-435 = system: MDA-MB-435
T-47D breast = system: T-47D breast
MALME-3M melanoma = system: MALME-3M melanoma
PC-3 prostate = system: PC-3 prostate
HL-60(TB) leukemia = system: HL-60(TB) leukemia
IGROV1 ovarian = system: IGROV1 ovarian
HCT-15 colon = system: HCT-15 colon
CAKI-1 renal = system: CAKI-1 renal
HCC-2998 colon = system: HCC-2998 colon
OVCAR-5 ovarian = system: OVCAR-5 ovarian
HS 578T breast = system: HS 578T breast
HT29 colon = system: HT29 colon
SK-OV-3 ovarian = system: SK-OV-3 ovarian
U251 CNS = system: U251 CNS
KM12 colon = system: KM12 colon
OVCAR-8 ovarian = system: OVCAR-8 ovarian
SNB-19 CNS = system: SNB-19 CNS
UACC-62 melanoma = system: UACC-62 melanoma
OVCAR-4 ovarian = system: OVCAR-4 ovarian
K-562 leukemia = system: K-562 leukemia
SF-295 CNS = system: SF-295 CNS
NCI-H226 lung = system: NCI-H226 lung
COLO 205 colon = system: COLO 205 colon
MDA-N = system: MDA-N
EKVX NSCLC = system: EKVX NSCLC
786-0 renal = system: 786-0 renal
TK-10 renal = system: TK-10 renal
HOP-62 NSCLC = system: HOP-62 NSCLC
MCF7 breast = system: MCF7 breast
NCI-H522 lung = system: NCI-H522 lung
NCI/ADR-RES ovarian = system: NCI/ADR-RES ovarian
MOLT-4 leukemia = system: MOLT-4 leukemia
ACHN renal = system: ACHN renal
SF-268 CNS = system: SF-268 CNS
HOP-92 NSCLC = system: HOP-92 NSCLC
SK-MEL-2 melanoma = system: SK-MEL-2 melanoma
SK-MEL-28 melanoma = system: SK-MEL-28 melanoma
SNB-75 CNS = system: SNB-75 CNS

Measured: TGI

O=C(O)c1ccc(C=C2Sc3ccccc3S2)cc1
42.5 µM: HCC-2998 colon
83 µM: OVCAR-3 ovarian
44.9 µM: MDA-MB-435
81.2 µM: MDA-N
39.6 µM: A498 renal
74.2 µM: ACHN renal
95.2 µM: UACC-62 melanoma
not listed: SK-MEL-28 melanoma | SNB-75 CNS
> 100 µM: all other assays above

CCCCCc1cccc(=O)o1
not listed: SNB-75 CNS
> 100 µM: all other assays above

Cc1ccc2ccc(O)cc2c1
52 µM: OVCAR-4 ovarian
42.4 µM: NCI-H522 lung
57.3 µM: IGROV1 ovarian
52.8 µM: HL-60(TB) leukemia
80.9 µM: HOP-92 NSCLC
55.9 µM: MOLT-4 leukemia
52.9 µM: PC-3 prostate
46.8 µM: MDA-MB-435 | HCC-2998 colon
67.1 µM: UO-31 renal
28.7 µM: OVCAR-3 ovarian
61.8 µM: CCRF-CEM leukemia
99.4 µM: BT-549 breast
60.4 µM: NCI/ADR-RES ovarian
66.4 µM: RPMI-8226 leukemia
48.8 µM: U251 CNS
47.1 µM: K-562 leukemia
42.6 µM: MDA-N
60.9 µM: OVCAR-8 ovarian
> 100 µM: all other assays above

Cc1cn(C(=O)NC23CC4CC(CC(C4)C2)C3)c(=O)[nH]c1=O
71.4 µM: UACC-62 melanoma
74.5 µM: CCRF-CEM leukemia
89.1 µM: MOLT-4 leukemia
65.5 µM: EKVX NSCLC
65.7 µM: NCI-H226 lung
80.3 µM: HCT-15 colon
75.5 µM: COLO 205 colon
76.3 µM: SK-MEL-2 melanoma
61.3 µM: MDA-MB-231 breast
86.6 µM: NCI/ADR-RES ovarian
51.2 µM: HL-60(TB) leukemia
94.1 µM: ACHN renal
75.1 µM: RPMI-8226 leukemia
83 µM: LOX IMVI melanoma
86.1 µM: BT-549 breast
not listed: A498 renal | IGROV1 ovarian | NCI-H522 lung
> 100 µM: all other assays above

CCOC(=O)C(NC(=O)c1ccccc1)(Nc1cc(C)on1)C(F)(F)F (configuration not stated)
56.2 µM: MDA-MB-231 breast
not listed: NCI-H460 lung | A498 renal
> 100 µM: all other assays above
